Data published in US10046007B2, “Compositions and methods for treatment of short telomere disorders” (PRESCIENT PHARMA LLC, priority 2015, dated 2018).
“Also recorded” adds a separate entry of the source. Like-named read-outs stand apart in the source and are kept apart here.

System: bleomycin-induced pulmonary fibrosis
Method: Bleomycin solution: bleomycin (commercially available from SigmaAldrich) in PBS was used for intra-tracheal bleomycin administration. (0.04 U of bleomycin in 50 μl in PBS/mouse/per inhalation).
13 female mice (commercially available from Charles River Laboratories, BALB/C) were randomly divided into 4 groups, as follows:
Each mouse was anesthetized with 87.5 mg ketamine/kg and 12.5 mg xyline/kg cocktail 0.1 ml/20 g body weight IM. For both lithium and bleomycin intra-tracheal administration, tracheal intubation was performed using with a 23 gauge IV catheter through the mouth, followed by insertion of PE-10 tubing into the trachea. After placement of the PE-10 tubing inside the trachea, the 23 gauge iv catheter was quickly removed. Lithium or bleomycin was instilled through the PE-10 tubing. The instillation volume was 50 μl each administration for each mouse. The procedure time was around 15 minutes per mouse.
For Group 1 (n=1), no treatment was administered and the mouse was sacrificed as control.
The mice was sacrificed at 21 days after first lithium administration. The mice were sacrificed using pentobarbital 200 mg/kg ip. After the mice were sacrificed, the lungs were quickly harvested and perfused with 10% formalin buffer through the trachea. The lung tissue was then fixed in 10% formalin buffer for 3 days.
For Group 3 (n=6), the mice were pre-treated with intra-tracheal lithium instillation (0.15 mM in 50 μl saline) every other day for 3 administrations. 7 days after the final lithium pre-treatment, intra-tracheal bleomycin was instilled (0.04 U in 50 μl saline). The mice in this group were then sacrificed 14 days after bleomycin administration. The mice were sacrificed using pentobarbital 200 mg/kg ip. After the mice were sacrificed, the lungs were quickly harvested and perfused with 10% formalin buffer through the trachea. The lung tissue was then fixed in 10% formalin buffer for 3 days.
For Group 4 (n=5), only intra-tracheal bleomycin was instilled (0.04 U in 50 μl saline). The mice in this group were then sacrificed 14 days after bleomycin administration. The mice were sacrificed using pentobarbital 200 mg/kg ip. After the mice were sacrificed, the lungs were quickly harvested and perfused with 10% formalin buffer through the trachea. The lung tissue was then fixed in 10% formalin buffer for 3 days.
Following the 3 day period, macroscopical examination of the lung tissue was performed by dissection. The lung tissue were cut into 1-2 mm slices and visually inspected for areas of grey-white discoloration. […] The lung slices were then embedded in paraffin and sectioned into 5-μm-thick sections. Hematoxylin and eosin (H&E) and trichrome staining (abcam; ab150686) were performed for tissue samples from each group. The stained slides were then examined under light microscope (Olympus BX51) and photographed (Olympus DP-73 digital camera).
An Ashcroft score was then calculated for each of the group (T Ashcroft at al., Simple method of estimating severity of pulmonary fibrosis on a numerical scale. J Clin Pathol 1988; 41:467-470). The Ashcroft score provides a simple method of estimating severity of pulmonary fibrosis on a numerical scale.

Compound	signs of lung tissue damage, macroscopic and microscopic (H&E, trichrome) (Group 2: lithium inhalation only)	Ashcroft score (Group 2: lithium inhalation only, 0.15 mM lithium carbonate 50 μl intratracheal every other day for 3 administrations, sacrificed at 21 days)	Ashcroft score (Group 3: intra-tracheal lithium 0.15 mM in 50 μl every other day for 3 administrations, bleomycin 0.04 U 7 days after final lithium, sacrificed 14 days after bleomycin)	signs of lung tissue damage, macroscopic and microscopic (H&E, trichrome) (Group 3: lithium pre-treatment followed by bleomycin)	pulmonary fibrosis development induced by bleomycin (lithium pre-treatment by inhalation, mice)	macroscopic examination of lung sections (grey-white discoloration) (Group 4: bleomycin alone)	microscopic examination of discoloured lung areas (Group 4: bleomycin alone)	Ashcroft score (Group 4: intra-tracheal bleomycin alone 0.04 U in 50 μl, sacrificed 14 days after bleomycin)
O=C([O-])[O-].[Li+].[Li+] [lithium carbonate]	did not show any macroscopically or microscopically sign of lung tissue damage	0	0	did not reveal any signs macroscopically or microscopically of lung tissue damage	completely abolishes			
bleomycin						only areas of such discoloration were found in the lung tissue of Group 4 mice; also recorded: multiple areas of grey-white discoloration mostly in peri-pleural areas	profound fibrotic changes	4.03
